# Assay results as given in patent US9078831B2, “Cosmetic treatment method using a compound that can be condensed in situ and a UV-radiation-filtering agent” (L'Oreal, priority 2009, dated 2015).
# Assays:
# [1] = Screening effectiveness (SPF) in vivo; design: species or system volunteers; details: spread over a deposited layer of APTES versus bare skin; 2 mg per cm^2; erythema read 24 h later
# Protocol: (§1) The screening effectiveness and the persistence towards water of a solution of UV screening agents, applied to a condensed deposited layer of APTES, in comparison with a solution deposited on bare skin, are evaluated and compared at different concentrations. The UV screening agents tested are Phenylbenzimidazole Sulfonic Acid and Terephthalylidene Dicamphor Sulfonic Acid.
# The studies were carried out on 5 volunteers of phototype I, II or III. The studies targeted exclusively at determining the screening effectiveness took place over 2 consecutive days, when 3 days were necessary for measurements of persistence towards water. On the first day, the screening formulation is applied at 2 mg per cm^2 on bare skin or on a condensed deposited layer of APTES. The volunteers are subsequently exposed to ultraviolet radiation. Erythema is read and the SPF is defined 24 h later. In the case of a test of persistence towards water, the same solutions or pairs of solutions are applied on the second day. The volunteers are immersed in 2 consecutive baths of water, each of 20 minutes, Wore being again exposed to UV radiation. The post-bath SPF is determined during the third test day. […]
# The SPF values of the 8% and 12% solutions of UV screening agents are measured, which measurements are taken after spreading over bare skin or over deposited layers more or less concentrated in APTES. […]
# [2] = Persistence towards water (water resistance, SPF before and after baths) in vivo; design: species or system volunteers; details: APTES layer under Example 2, in words
# Protocol: as §1
# The studies were carried out on 5 volunteers of phototype I, II or III. The studies targeted exclusively at determining the screening effectiveness took place over 2 consecutive days, when 3 days were necessary for measurements of persistence towards water. On the first day, the screening formulation is applied at 2 mg per cm^2 on bare skin or on a condensed deposited layer of APTES. The volunteers are subsequently exposed to ultraviolet radiation. Erythema is read and the SPF is defined 24 h later. In the case of a test of persistence towards water, the same solutions or pairs of solutions are applied on the second day. The volunteers are immersed in 2 consecutive baths of water, each of 20 minutes, Wore being again exposed to UV radiation. The post-bath SPF is determined during the third test day. The water resistance (WR) is defined as: […]
# The water resistance of the 12% solution of UV screening agents was also evaluated in vivo, with and without APTES. […]
smiles,measurement,setting,value
"CCO[Si](CCCN)(OCC)OCC [APTES, γ-aminopropyltriethoxysilane]",SPF in vivo,[1],SPF increases in proportion as the amount of APTES spread beforehand over the skin increases
same,resistance to water of the UV screening agents,[2],significantly increase the resistance to water
